Data taken from patent US11066414B2, “Cot modulators and methods of use thereof” (Gilead Sciences, Inc., priority 2015, dated 2021).

The compounds below were run on TNFα (assay: Cot Monocyte TNFα Cell Based Assay). Settings: Homo sapiens, Monocyte, read-out: EC50 TNF, LPS-stimulated human monocytes, TNFα.
An EC50 of 111 nM was found for `CC[C@@H](Nc1c(C#N)cnc2c(Cl)cc(N[C@@H](c3cccnc3)c3cn(C4COC4)nn3)cc12)c1ccccc1` [Example 194, 8-chloro-6-(((S)-(1-(oxetan-3-yl)-1H-1,2,3-triazol-4-yl)(pyridin-3-yl)methyl)amino)-4-(((R)-1-phenylpropyl)amino)quinoline-3-carbonitrile] in this work. An EC50 of 806 nM was found for `Cc1ncoc1[C@H](Nc1cc(C#N)c2ncc(C#N)c(NCC(C)(C)C)c2c1)c1cn(C2(C(F)F)CC2)nn1` [Example 657, (R)-6-(((1-(1-(difluoromethyl)-cyclopropyl)-1H-1,2,3-triazol-4-yl)(4-methyloxazol-5-yl)methyl)amino)-4-(neopentylamino)quinoline-3,8-dicarbonitrile] in this work. An EC50 of 1300 nM was found for `CC(C)(C)N1CCC(n2cc([C@@H](Nc3cc(Cl)c4ncc(C#N)c(Nc5cncc(Cl)c5)c4c3)c3cccnc3)nn2)CC1` [Example 284, (S)-6-(((1-(1-(tert-butyl)piperidin-4-yl)-1H-1,2,3-triazol-4-yl)(pyridin-3-yl)methyl)amino)-8-chloro-4-((5-chloropyridin-3-yl)amino)quinoline-3-carbonitrile] in this work. An EC50 of 868 nM was found for `CC(C)n1cc([C@@H](Nc2cc(Cl)c3ncc(C#N)c(Nc4ccc(F)c(Cl)c4)c3c2)c2cncs2)nn1` [Example 303, (R)-8-chloro-4-((3-chloro-4-fluorophenyl)amino)-6-(((1-isopropyl-1H-1,2,3-triazol-4-yl)(thiazol-5-yl)methyl)amino)quinoline-3-carbonitrile] in this work. An EC50 of 88 nM was found for `CC(C)(C)N1CCC(n2cc([C@@H](Nc3cc(Cl)c4ncc(C#N)c(Nc5ccc(F)c(Cl)c5)c4c3)c3cccc4ncsc34)nn2)CC1` [Example 52, (S)-6-((benzo[d]thiazol-7-yl(1-(1-(tert-butyl)piperidin-4-yl)-1H-1,2,3-triazol-4-yl)methyl)amino)-8-chloro-4-((3-chloro-4-fluorophenyl)amino)quinoline-3-carbonitrile] in this work. An EC50 of 211 nM was found for `N#Cc1cnc2c(Cl)cc(N[C@@H](c3cccnc3)c3cn(C4CC4)nn3)cc2c1Nc1cnc(F)c(F)c1` [Example 206, (S)-8-chloro-6-(((1-cyclopropyl-1H-1,2,3-triazol-4-yl)(pyridin-3-yl)methyl)amino)-4-((5,6-difluoropyridin-3-yl)amino)quinoline-3-carbonitrile] in this work. An EC50 of 297 nM was found for `Cc1ncccc1[C@H](Nc1cc(Cl)c2ncc(C#N)c(Nc3ccc(F)c(Cl)c3)c2c1)c1c[nH]nn1` [Example 272, (S)-8-chloro-4-((3-chloro-4-fluorophenyl)amino)-6-(((2-methylpyridin-3-yl)(1H-1,2,3-triazol-4-yl)methyl)amino)quinoline-3-carbonitrile] in this work. An EC50 of 185 nM was found for `COc1ccc([C@H](Nc2cc(Cl)c3ncc(C#N)c(Nc4ccc(F)c(Cl)c4)c3c2)c2cn(C3CCN(C(C)(C)C)CC3)nn2)cn1` [Example 290, (S)-6-(((1-(1-(tert-butyl)piperidin-4-yl)-1H-1,2,3-triazol-4-yl)(6-methoxy-pyridin-3-yl)methyl)amino)-8-chloro-4-((3-chloro-4-fluorophenyl)amino)-quinoline-3-carbonitrile] in this work. An EC50 of 386 nM was found for `CC(C)(C)CNc1c(C#N)cnc2c(Cl)cc(N[C@@H](c3ccc4cccnc4c3)c3cn(C4(C(F)F)CC4)nn3)cc12` [Example 699, (S)-8-chloro-6-(((1-(1-(difluoromethyl)cyclopropyl)-1H-1,2,3-triazol-4-yl)(quinolin-7-yl)methyl)amino)-4-(neopentylamino)quinoline-3-carbonitrile] in this work. An EC50 of 1000 nM was found for `Cc1ncoc1[C@H](Nc1cc(Cl)c2ncc(C#N)c(NCC(C)(C)C)c2c1)c1cn(C2(C(F)F)CC2)nn1` [Example 630, (R)-8-chloro-6-(((1-(1-(difluoromethyl)cyclopropyl)-1H-1,2,3-triazol-4-yl)(4-methyloxazol-5-yl)methyl)amino)-4-(neopentylamino)quinoline-3-carbonitrile] in this work. An EC50 of 135 nM was found for `CC(C)(C)CNc1c(C#N)cnc2c(Cl)cc(N[C@H](c3cn(C4(C(F)(F)F)CC4)nn3)c3ccc(Cl)c4cnccc34)cc12` [Example 651, (S)-8-chloro-6-(((8-chloroisoquinolin-5-yl)(1-(1-(trifluoromethyl)cyclopropyl)-1H-1,2,3-triazol-4-yl)methyl)amino)-4-(neopentylamino)quinoline-3-carbonitrile] in this work. An EC50 of 1260 nM was found for `Cc1ncsc1[C@H](Nc1cc(Cl)c2ncc(C#N)c(Nc3cnc(F)c(F)c3)c2c1)c1c[nH]nn1` [Example 170, (R)-8-chloro-4-((5,6-difluoropyridin-3-yl)amino)-6-(((4-methylthiazol-5-yl)(1H-1,2,3-triazol-4-yl)methyl)amino)quinoline-3-carbonitrile] in this work. An EC50 of 530 nM was found for `Cc1ccc([C@H](Nc2cc(Cl)c3ncc(C#N)c(NCC(C)(C)C)c3c2)c2cn(C3(C(F)(F)F)CC3)nn2)cn1` [Example 795, (S)-8-chloro-6-(((6-methylpyridin-3-yl)(1-(1-(trifluoromethyl)cyclopropyl)-1H-1,2,3-triazol-4-yl)methyl)amino)-4-(neopentylamino)quinoline-3-carbonitrile] in this work. An EC50 of 941 nM was found for `N#Cc1cnc2c(Cl)cc(N[C@@H](c3cccnc3)c3cn(CC(F)(F)F)nn3)cc2c1Nc1cnc(F)c(F)c1` [Example 209, (S)-8-chloro-4-((5,6-difluoropyridin-3-yl)amino)-6-((pyridin-3-yl(1-(2,2,2-trifluoroethyl)-1H-1,2,3-triazol-4-yl)methyl)amino)quinoline-3-carbonitrile] in this work. An EC50 of 73 nM was found for `Cn1ncc2cccc([C@H](Nc3cc(C#N)c4ncc(C#N)c(NCC(C)(C)C)c4c3)c3cn(C4(C(F)(F)F)CC4)nn3)c21` [Example 526, (S)-6-(((1-methyl-1H-indazol-7-yl)(1-(1-(trifluoromethyl)cyclopropyl)-1H-1,2,3-triazol-4-yl)methyl)amino)-4-(neopentylamino)quinoline-3,8-dicarbonitrile] in this work. An EC50 of 130 nM was found for `Cc1nc(Cl)ccc1[C@H](Nc1cc(Cl)c2ncc(C#N)c(NCC(C)(C)C)c2c1)c1cn(C2(C(F)(F)F)CC2)nn1` [Example 794, (S)-8-chloro-6-(((6-chloro-2-methylpyridin-3-yl)(1-(1-(trifluoromethyl)-cyclopropyl)-1H-1,2,3-triazol-4-yl)methyl)amino)-4-(neopentylamino)quinoline-3-carbonitrile] in this work. An EC50 of 710 nM was found for `[2H]C([2H])(Nc1c(C#N)cnc2c(Cl)cc(N[C@@]([2H])(c3ccc(N(C)C)nc3)c3cn(C4CC4)nn3)cc12)C(C)(C)C` [Example 679, (S)-8-chloro-6-(((1-cyclopropyl-1H-1,2,3-triazol-4-yl)(6-(dimethylamino)pyridin-3-yl)methyl-d)amino)-4-((2,2-dimethylpropyl-1,1-d2)amino)quinoline-3-carbonitrile] in this work. An EC50 of 1220 nM was found for `Cc1nc(Cl)ccc1[C@H](Nc1cc(Cl)c2ncc(C#N)c(Nc3cnc(F)c(F)c3)c2c1)c1c[nH]nn1` [Example 169, (S)-8-chloro-6-(((6-chloro-2-methylpyridin-3-yl)(1H-1,2,3-triazol-4-yl)methyl)amino)-4-((5,6-difluoropyridin-3-yl)amino)quinoline-3-carbonitrile] in this work. An EC50 of 177 nM was found for `COc1ncccc1[C@H](Nc1cc(Cl)c2ncc(C#N)c(NCC(C)(C)C)c2c1)c1cn(C2(C(F)(F)F)CC2)nn1` [Example 782, (S)-8-chloro-6-(((2-methoxypyridin-3-yl)(1-(1-(trifluoromethyl)cyclopropyl)-1H-1,2,3-triazol-4-yl)methyl)amino)-4-(neopentylamino)quinoline-3-carbonitrile] in this work. An EC50 of 444 nM was found for `CC(C)(C)N1CCC(n2cc([C@@H](Nc3cc(Cl)c4ncc(C#N)c(Nc5ccc(F)c(Cl)c5)c4c3)c3cocn3)nn2)CC1` [Example 348, (S)-6-(((1-(1-(tert-butyl)piperidin-4-yl)-1H-1,2,3-triazol-4-yl)(oxazol-4-yl)methyl)amino)-8-chloro-4-((3-chloro-4-fluorophenyl)amino)-quinoline-3-carbonitrile] in this work. An EC50 of 327 nM was found for `CC(C)(C)N1CCC(n2cc([C@@H](Nc3cc(Cl)c4ncc(C#N)c(Nc5ccc(F)c(Cl)c5)c4c3)c3cnc(F)c(F)c3)nn2)CC1` [Example 292, (S)-6-(((1-(1-(tert-butyl)piperidin-4-yl)-1H-1,2,3-triazol-4-yl)(5,6-difluoropyridin-3-yl)methyl)amino)-8-chloro-4-((3-chloro-4-fluorophenyl)amino)quinoline-3-carbonitrile] in this work.

Same assay, conditions: Homo sapiens, Monocyte, read-out: EC50 TNF, LPS-stimulated human monocytes, TNFα TR-FRET
An EC50 of 41 nM was found for `CC1(n2cc([C@@H](Nc3cc(C#N)c4ncc(C#N)c(NCC(C)(C)C(F)(F)F)c4c3)c3cccc4ncccc34)nn2)CC1` [Example 895, (S)-6-(((1-(1-methylcyclopropyl)-1H-1,2,3-triazol-4-yl)(quinolin-5-yl)methyl)amino)-4-((3,3,3-trifluoro-2,2-dimethylpropyl)amino)quinoline-3,8-dicarbonitrile] in this work. An EC50 of 191 nM was found for `COc1ccc([C@H](Nc2cc(Cl)c3ncc(C#N)c(NCC(C)(C)C)c3c2)c2nnn(C3(C(F)F)CC3)c2OC)c(C)n1` [Example 966, (S)-8-chloro-6-(((1-(1-(difluoromethyl)cyclopropyl)-5-methoxy-1H-1,2,3-triazol-4-yl)(6-methoxy-2-methylpyridin-3-yl)methyl)amino)-4-(neopentylamino)quinoline-3-carbonitrile] in this work. An EC50 of 36 nM was found for `Cc1ncsc1[C@H](Nc1cc(C#N)c2ncc(C#N)c(NCC(C)(C)C)c2c1)c1cn(C2(C3CC3)CC2)nn1` [Example 903, (R)-6-(((1-([1,1′-bi(cyclopropan)]-1-yl)-1H-1,2,3-triazol-4-yl)(4-methylthiazol-5-yl)methyl)amino)-4-(neopentylamino)quinoline-3,8-dicarbonitrile] in this work.

Same assay, conditions: read-out: EC50 TNF; LPS-stimulated human monocytes, TNFα TR-FRET
An EC50 of 1000 nM was found for “6-(((6-fluoro-2-methylpyridin-3-yl)(1-((1- (trifluoromethyl)cyclopropyl)-1H-1,2,3- triazol-4-yl)methyl)amino)-8-(3-hydroxy- 3-methylbutyl-1-yl)-4- (neopentylamino)quinoline-3-carbonitrile [Example 982]” in this work.
